The subject of one assay is 22Rv1 Cell. Briefly: 22RV1 cell growth inhibition, CellTiter-Glo, 72 h. In kind it is cell-based. Conditions: Homo sapiens, 22Rv1, 72 h, 22RV1 cells, 72 h culture. Summed up: (§1)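 Cells seeded at 5×10^3/well overnight in RPMI-1640/10% FBS, then exposed to compound (0.5% DMSO final) for 72 h at 37 °C.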
Background: Cellular ATP, detected with luciferase, serves as a proxy for viable cell number.

Another assay deals with vCap Cell. Briefly: vCap cell growth inhibition, CellTiter-Glo, 72 h. In kind it is cell-based. The note with it: Homo sapiens, VCaP, 72 h, vCap cells, 72 h culture. Summed up: as §1
In another assay the target is T1, CBP bromodomain (Homo sapiens, UniProt Q92793).
T1 construct: purchased
T1 sequence (Q92793 1085-1192 limits assumed): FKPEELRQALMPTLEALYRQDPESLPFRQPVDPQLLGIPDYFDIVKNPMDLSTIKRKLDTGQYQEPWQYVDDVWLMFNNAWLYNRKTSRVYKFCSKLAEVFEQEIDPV
In words: CBP AlphaLISA assay kit (CBP bromodomain binding to acetylated histone substrate). The note with it: read-out: CBP ALPHA IC50. The procedure:
The biochemical activity of the CBP inhibitors was determined using the CBP AlphaLISA® assay kit. The assay is based on the binding of the CBP bromodomain to the acetylated histone substrate. The compounds were incubated with CBP and the biotinylated substrate for 30 min. Then acceptor beads were added, followed by 15 min of incubation, and donor beads were added, followed by 15 min of incubation. Then the alpha counts were read, the data were analyzed using Prism 7.0, and the IC50 values were calculated. The values are shown as mean f SEM (N=2).
A general note: Bead proximity is the source of the signal in Alpha formats.

A further assay deals with T2, EP300 (Homo sapiens, UniProt Q09472).
T2 construct: purchased
T2 sequence (Q09472 whole entry): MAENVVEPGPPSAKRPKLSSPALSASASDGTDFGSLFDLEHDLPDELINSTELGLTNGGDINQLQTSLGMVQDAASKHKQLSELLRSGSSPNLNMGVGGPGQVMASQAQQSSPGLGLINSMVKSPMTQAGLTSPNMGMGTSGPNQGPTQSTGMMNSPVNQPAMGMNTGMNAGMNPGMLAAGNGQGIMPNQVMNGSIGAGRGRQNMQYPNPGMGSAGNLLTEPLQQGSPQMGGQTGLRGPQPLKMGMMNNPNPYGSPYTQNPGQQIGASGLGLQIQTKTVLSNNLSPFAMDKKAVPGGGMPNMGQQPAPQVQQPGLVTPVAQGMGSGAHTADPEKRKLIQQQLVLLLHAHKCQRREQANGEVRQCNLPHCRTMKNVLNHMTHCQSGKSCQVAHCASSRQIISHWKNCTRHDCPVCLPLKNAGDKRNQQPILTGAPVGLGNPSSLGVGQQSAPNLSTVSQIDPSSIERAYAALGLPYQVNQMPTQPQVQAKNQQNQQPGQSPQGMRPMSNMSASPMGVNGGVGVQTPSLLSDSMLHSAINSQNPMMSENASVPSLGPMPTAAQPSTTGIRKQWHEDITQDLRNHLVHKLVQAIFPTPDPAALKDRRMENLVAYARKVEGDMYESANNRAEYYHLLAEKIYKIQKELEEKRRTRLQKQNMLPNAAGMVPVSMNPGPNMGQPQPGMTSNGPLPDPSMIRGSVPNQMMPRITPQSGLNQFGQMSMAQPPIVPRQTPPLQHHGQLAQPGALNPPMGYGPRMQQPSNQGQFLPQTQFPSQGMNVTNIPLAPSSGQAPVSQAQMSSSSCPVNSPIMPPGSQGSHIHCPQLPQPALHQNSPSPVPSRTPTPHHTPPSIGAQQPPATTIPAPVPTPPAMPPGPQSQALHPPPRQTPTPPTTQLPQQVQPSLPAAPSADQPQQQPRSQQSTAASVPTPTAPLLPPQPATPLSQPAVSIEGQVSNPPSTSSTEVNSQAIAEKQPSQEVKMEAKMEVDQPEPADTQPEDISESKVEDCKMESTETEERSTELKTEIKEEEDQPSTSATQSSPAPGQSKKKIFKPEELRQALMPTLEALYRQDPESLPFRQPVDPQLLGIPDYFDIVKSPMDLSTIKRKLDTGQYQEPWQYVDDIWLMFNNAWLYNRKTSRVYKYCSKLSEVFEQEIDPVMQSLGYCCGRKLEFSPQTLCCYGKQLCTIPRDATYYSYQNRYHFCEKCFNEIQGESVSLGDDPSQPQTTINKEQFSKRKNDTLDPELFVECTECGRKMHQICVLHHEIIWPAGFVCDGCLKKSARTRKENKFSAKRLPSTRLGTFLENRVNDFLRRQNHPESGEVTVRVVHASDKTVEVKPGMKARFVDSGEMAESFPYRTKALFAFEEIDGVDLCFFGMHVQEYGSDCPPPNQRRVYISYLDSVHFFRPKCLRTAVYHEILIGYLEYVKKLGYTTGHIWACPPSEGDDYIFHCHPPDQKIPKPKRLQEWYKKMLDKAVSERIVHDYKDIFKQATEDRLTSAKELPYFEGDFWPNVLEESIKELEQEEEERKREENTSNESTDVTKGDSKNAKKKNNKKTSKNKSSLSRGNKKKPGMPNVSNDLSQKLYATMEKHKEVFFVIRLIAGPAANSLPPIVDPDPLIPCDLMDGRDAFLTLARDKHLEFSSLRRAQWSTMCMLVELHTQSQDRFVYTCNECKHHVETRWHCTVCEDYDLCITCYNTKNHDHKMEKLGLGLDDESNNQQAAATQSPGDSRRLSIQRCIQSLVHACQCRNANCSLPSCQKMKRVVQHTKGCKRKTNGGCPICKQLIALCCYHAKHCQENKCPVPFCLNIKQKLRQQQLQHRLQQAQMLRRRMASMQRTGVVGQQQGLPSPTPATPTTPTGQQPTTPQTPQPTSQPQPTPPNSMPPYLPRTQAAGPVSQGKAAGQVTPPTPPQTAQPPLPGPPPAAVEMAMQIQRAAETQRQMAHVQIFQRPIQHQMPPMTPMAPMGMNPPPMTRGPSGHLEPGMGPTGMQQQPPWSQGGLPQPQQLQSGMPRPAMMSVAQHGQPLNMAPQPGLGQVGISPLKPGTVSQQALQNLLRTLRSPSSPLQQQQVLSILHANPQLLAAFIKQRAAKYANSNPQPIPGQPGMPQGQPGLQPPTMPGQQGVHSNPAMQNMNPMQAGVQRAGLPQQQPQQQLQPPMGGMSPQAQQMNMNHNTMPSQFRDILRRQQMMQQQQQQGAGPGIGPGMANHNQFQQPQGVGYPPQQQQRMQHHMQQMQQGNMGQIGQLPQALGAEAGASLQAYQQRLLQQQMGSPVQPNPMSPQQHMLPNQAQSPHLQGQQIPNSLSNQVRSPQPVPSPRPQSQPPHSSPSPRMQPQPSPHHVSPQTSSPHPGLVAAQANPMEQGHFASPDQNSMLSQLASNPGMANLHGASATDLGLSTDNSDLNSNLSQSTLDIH
In words: Ep300 AlphaLISA assay kit. The note with it: read-out: EP300 ALPHA IC50. In kind it is biochemical. The method, then:
The biochemical activity of the EP300 modulators was determined using the Ep300 AlphaLISA® assay kit. The assay is based on the […] of residues in the peptide substrate by enzymatic transfer of acetyl groups from acetyl-CoA to particular lysine. The compounds were incubated with EP300 and then with an antibody combination of an antibody that specifically binds to an acetylated peptide and acceptor beads that bind to an acetylated peptide, followed by streptavidin-labeled donor beads. The alpha counts were read, the data were analyzed using Prism 7.0, and the IC50 values were calculated. The values are shown as mean f SEM (N=2).

Some results are limits rather than exact numbers.

The record followed here is patent US20240109868A1, “EP300/CBP MODULATOR, PREPARATION METHOD THEREFOR AND USE THEREOF” (Miracure Biotechnology Limited, priority 2022, published 2024).

On to `CC(=O)N1Cc2cc(C3CCOCC3)cc(N3CCCc4cc(-c5cnn(C)c5)c(C(F)F)cc43)c2C1` [Compound M001067], for which the half-maximal inhibitory concentration (IC50) (in general, the concentration that gives 50% inhibition) is more than 1 µM in the assay on 22Rv1 Cell, less than 1 µM in the assay with vCap Cell, less than 0.01 µM at CBP bromodomain and less than 0.01 µM on EP300.
Take `COC(=O)N1CCc2cccc(N3CCCc4cc(-c5cnn(C)c5)c(C(F)F)cc43)c2C1` [Compound M001202]: the IC50 is more than 1 µM in the assay with 22Rv1 Cell, more than 1 µM in the assay with vCap Cell, less than 0.01 µM at CBP bromodomain and less than 0.01 µM at EP300.
Take `CNC(=O)N1Cc2nc(Cl)nc(N3CCCc4cc(-c5cnn(C)c5)c(C(F)F)cc43)c2C1` [Compound M001242]: the IC50 in the assay on 22Rv1 Cell is more than 1 µM; in the assay with vCap Cell it was more than 1 µM; at CBP bromodomain it was more than 0.01 µM; at EP300, more than 0.01 µM.
On to `CC(=O)N1Cc2nc(C3CCOCC3)nc(N3CCCc4cc(-c5cnn(C)c5)c(C(F)F)cc43)c2C1` [Compound M001243], for which the IC50 in the assay with 22Rv1 Cell is more than 1 µM; in the assay on vCap Cell it was more than 1 µM; at CBP bromodomain, more than 0.01 µM; on EP300 it was more than 0.01 µM.
Regarding `CNC(=O)N1CCc2nc(C3CCOCC3)nc(N3CCCc4cc(-c5cnn(C)c5)c(C(F)F)cc43)c2C1` [Compound M001245, 4-(7-(Difluoromethyl)-6-(1-methyl-1H-pyrazol-4-yl)-3,4-dihydroquinolin-1(2H)-yl)-N-methyl-2-(tetrahydro-2H-pyran-4-yl)-7,8-dihydropyrido[4,3-d]pyrimidine-6(5H)-carboxamide], the IC50 was more than 1 µM with 22Rv1 Cell, more than 1 µM in the assay on vCap Cell, less than 0.01 µM at CBP bromodomain and less than 0.01 µM on EP300.
On to `CNC(=O)N1CCc2c(c(N3CCCc4cc(-c5cnn(C)c5)c(C(F)F)cc43)nn2C2CCOCC2)C1` [GNE-781], for which the IC50 in the assay with 22Rv1 Cell was more than 1 µM; with vCap Cell it was more than 1 µM; on CBP bromodomain it was less than 0.01 µM; at EP300, less than 0.01 µM.
